Results as given in patent US10722501B2 (BAYER AKTIENGESELLSCHAFT, priority 2016, dated 2020).

Target: T1, recombinant full-length human prolyl endopeptidase (PREP) (Homo sapiens, UniProt P48147)
T1 construct: To recombinant full-length human prolyl endopeptidase (PREP, R&D-Systems, 4308-SE); purchased R&D-Systems 4308-SE
T1 sequence (P48147 1-710): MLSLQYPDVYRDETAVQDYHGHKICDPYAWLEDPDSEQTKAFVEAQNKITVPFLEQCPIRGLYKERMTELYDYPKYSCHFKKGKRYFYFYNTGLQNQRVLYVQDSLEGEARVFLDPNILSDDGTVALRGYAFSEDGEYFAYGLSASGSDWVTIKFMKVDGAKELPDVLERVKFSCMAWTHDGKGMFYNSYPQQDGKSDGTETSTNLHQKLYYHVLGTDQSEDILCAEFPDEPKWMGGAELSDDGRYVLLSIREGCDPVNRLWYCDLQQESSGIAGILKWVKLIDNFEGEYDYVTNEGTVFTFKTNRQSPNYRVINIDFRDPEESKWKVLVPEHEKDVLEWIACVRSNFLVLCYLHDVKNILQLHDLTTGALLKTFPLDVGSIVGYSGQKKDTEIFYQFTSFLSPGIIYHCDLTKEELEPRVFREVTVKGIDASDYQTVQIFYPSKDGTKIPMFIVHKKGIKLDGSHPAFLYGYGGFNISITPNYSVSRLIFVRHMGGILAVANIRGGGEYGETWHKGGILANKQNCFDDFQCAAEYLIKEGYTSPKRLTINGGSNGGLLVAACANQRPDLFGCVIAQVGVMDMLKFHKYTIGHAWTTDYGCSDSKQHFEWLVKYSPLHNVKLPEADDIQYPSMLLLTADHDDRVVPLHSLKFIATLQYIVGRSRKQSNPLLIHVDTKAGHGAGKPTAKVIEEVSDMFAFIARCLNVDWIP
Experiment: Biochemical human prolyl endopeptidase (PREP) assay with fluorescently labelled substrate
Details: substrate Z-Gly-Pro-AMC 50 μM, 32° C., 60 min; some as mean values from multiple independent determinations
Procedure, shortened: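 0.4 nM (final, example) recombinant PREP in pH 7.5 Tris buffer with EDTA, GSH, BSA and Brij-35; compounds at 1 nM to 30 μM. Reaction started with 50 μM Z-Gly-Pro-AMC and followed by fluorescence (ex 360/em 465 nm) at 32° C for 60 min. IC50 interpolated from percent activity based on initial slopes.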

Compared with `Cc1ccc(Cn2nc3n(c2=O)[C@H](C(=O)N2CC[C@@H](F)C2)CCC3)cc1` [Example 111, (5S)-5-{[(3R)-3-Fluoropyrrolidin-1-yl]carbonyl}-2-(4-methylbenzyl)-5,6,7,8-tetrahydro[1,2,4]triazolo[4,3-a]pyridin-3(2H)-one], `O=C([C@@H]1CCCc2nn(Cc3ccc(F)c(C(F)(F)F)c3)c(=O)n21)N1CC[C@H](F)C1` [Example 448, (5S)-5-{[(3S)-3-Fluoropyrrolidin-1-yl]carbonyl}-2-[4-fluoro-3-(trifluoromethyl)benzyl]-5,6,7,8-tetrahydro[1,2,4]triazolo[4,3-a]pyridin-3(2H)-one] is 1.5-fold higher in IC50: 0.41 nM for the first, 0.615 nM for the second.

`O=C(C1CC(C(F)(F)F)Cc2nn(Cc3ncc(C(F)(F)F)cc3Cl)c(=O)n21)N1CCC(F)(F)C1` (racemic) [Example 564, (5RS,7RS)-2-{[3-Chloro-5-(trifluoromethyl)pyridin-2-yl]methyl}-5-[(3,3-difluoropyrolidin-1-yl)carbonyl]-7-(trifluoromethyl)-5,6,7,8-tetrahydro[1,2,4]triazolo[4,3-a]pyridin-3(2H)-one] and `O=C([C@@H]1CCC(F)(F)c2nn(Cc3ncc(C(F)(F)F)cc3Cl)c(=O)n21)N1CCC(F)(F)C1` [Example 590, (5S)-2-{[3-Chloro-5-(trifluoromethyl)pyridin-2-yl]methyl}-5-[(3,3-difluoropyrrolidin-1-yl)carbonyl]-8,8-difluoro-5,6,7,8-tetrahydro[1,2,4]triazolo[4,3-a]pyridin-3(2H)-one] are within 1.5-fold of each other in IC50: 4.4 nM for the first, 3.9 nM for the second.

`CC1Cc2nn(Cc3ccnc(C(F)(F)F)c3F)c(=O)n2C(C(=O)N2CCC(F)(F)C2)C1` (racemic) [Example 334, (5RS,7RS)-5-[(3,3-Difluoropyrrolidin-1-yl)carbonyl]-2-{[3-fluoro-2-(trifluoromethyl)pyridin-4-yl]methyl}-7-methyl-5,6,7,8-tetrahydro[1,2,4]triazolo[4,3-a]pyridin-3(2H)-one] and `O=C([C@@H]1CCCc2nn(Cc3ccnc(C(F)(F)F)c3F)c(=O)n21)N1CCC(F)(F)C1` [Example 482, (5S)-5-[(3,3-Difluoropyrrolidin-1-yl)carbonyl]-2-{[3-fluoro-2-(trifluoromethyl)pyridin-4-yl]methyl}-5,6,7,8-tetrahydro[1,2,4]triazolo[4,3-a]pyridin-3(2H)-one] are within 1.5-fold of each other in IC50: 2.95 nM for the first, 2.8 nM for the second.

First: O=C([C@@H]1CCCc2nn(Cc3cncc(Cl)c3)c(=O)n21)N1CC(F)(F)C1 [Example 437, (5S)-2-[(5-Chloropyridin-3-yl)methyl]-5-[(3,3-difluoroazetidin-1-yl)carbonyl]-5,6,7,8-tetrahydro[1,2,4]triazolo[4,3-a]pyridin-3(2H)-one]
Second: O=C(C1CCCc2nn(Cc3ccc(Cl)c(Cl)c3)c(=O)n21)N1CCC(F)(F)C1 (racemic) [Example 45, (5RS)-2-(3,4-Dichlorobenzyl)-5-[(3,3-difluoropyrrolidin-1-yl)carbonyl]-5,6,7,8-tetrahydro[1,2,4]triazolo[4,3-a]pyridin-3(2H)-one]
The IC50 of the first is 4.4-fold higher: 7.1 nM for the first, 1.6 nM for the second.

Compared with `O=C([C@@H]1CCCc2nn(/C=C/c3ccc(F)cc3)c(=O)n21)N1CCCC1` [Example 204, (5S)-2-[(E)-2-(4-Fluorophenyl)vinyl]-5-(pyrrolidin-1-ylcarbonyl)-5,6,7,8-tetrahydro[1,2,4]triazolo[4,3-a]pyridin-3(2H)-one], `O=C(C1CCCc2nn(Cc3noc(-c4cccc(C(F)(F)F)c4)n3)c(=O)n21)N1CCCC1` (racemic) [Example 69, (5RS)-5-(Pyrrolidin-1-ylcarbonyl)-2-({5-[3-(trifluoromethyl)phenyl]-1,2,4-oxadiazol-3-yl}methyl)-5,6,7,8-tetrahydro[1,2,4]triazolo[4,3-a]pyridin-3(2H)-one] is 1.5-fold lower in IC50: 320 nM for the first, 210 nM for the second. The second is the more potent here.

Going from `O=C(C1CC(C(F)(F)F)Cc2nn(Cc3ncc(Cl)cc3F)c(=O)n21)N1CC[C@H](F)C1` (single isomer, unassigned) [Example 265] to `O=C([C@@H]1CCCc2nn(Cc3ncc(Cl)cc3F)c(=O)n21)N1C[C@@H](F)[C@@H](F)C1` [Example 408, (5S)-2-[(5-Chloro-3-fluoropyridin-2-yl)methyl]-5-{[(3R,4S)-3,4-difluoropyrrolidin-1-yl]carbonyl}-5,6,7,8-tetrahydro[1,2,4]triazolo[4,3-a]pyridin-3(2H)-one], the IC50 falls from 1.3 nM to 0.46 nM (2.8-fold).

Compared with `O=C([C@@H]1CCCc2nn(Cc3ccc(F)c(Cl)c3)c(=O)n21)N1CC(F)C1` [Example 457, (5S)-2-(3-Chloro-4-fluorobenzyl)-5-[(3-fluoroazetidin-1-yl)carbonyl]-5,6,7,8-tetrahydro[1,2,4]triazolo[4,3-a]pyridin-3(2H)-one], `O=C([C@@H]1CCCc2nn(Cc3ccc(F)c(C(F)(F)F)c3)c(=O)n21)N1CC(O)C1` [Example 449, (5S)-2-[4-Fluoro-3-(trifluoromethyl)benzyl]-5-[(3-hydroxyazetidin-1-yl)carbonyl]-5,6,7,8-tetrahydro[1,2,4]triazolo[4,3-a]pyridin-3(2H)-one] is 4.2-fold higher in IC50: 1.32 nM for the first, 5.55 nM for the second.

First: CC1CCC(C(=O)N2C[C@@H](F)[C@@H](F)C2)n2c1nn(Cc1ccc(C(F)(F)F)nc1)c2=O (mixture of isomers) [Example 325, (5RS,8RS)-5-{[(3R,4S)-3,4-Difluoropyrrolidin-1-yl]carbonyl}-8-methyl-2-{[6-(trifluoromethyl)pyridin-3-yl]methyl}-5,6,7,8-tetrahydro[1,2,4]triazolo[4,3-a]pyridin-3(2H)-one]
Second: CC1CCC(C(=O)N2C[C@@H](F)[C@@H](F)C2)n2c1nn(Cc1ccnc(C(F)(F)F)c1F)c2=O (mixture of isomers) [Example 322, (5RS,8RS)-5-{[(3R,4S)-3,4-Difluoropyrrolidin-1-yl]carbonyl}-2-{[3-fluoro-2-(trifluoromethyl)pyridin-4-yl]methyl}-8-methyl-5,6,7,8-tetrahydro[1,2,4]triazolo[4,3-a]pyridin-3(2H)-one]
The IC50 of the first is 1.6-fold higher: 1.5 nM for the first, 0.94 nM for the second.

Going from `CC1CCC(C(=O)N2CCC(F)(F)C2)n2c1nn(Cc1ccc(F)cc1F)c2=O` (racemic) [Example 327, (5RS,8RS)-2-(2,4-Difluorobenzyl)-5-[(3,3-difluoropyrrolidin-1-yl)carbonyl]-8-methyl-5,6,7,8-tetrahydro[1,2,4]triazolo[4,3-a]pyridin-3(2H)-one] to `O=C(C1C(C(F)(F)F)CCc2nn(Cc3ncc(Cl)cc3Cl)c(=O)n21)N1CCC(F)(F)C1` (racemic) [Example 289, (5RS,6RS)-2-[(3,5-Dichloropyridin-2-yl)methyl]-5-[(3,3-difluoropyrrolidin-1-yl)carbonyl]-6-(trifluoromethyl)-5,6,7,8-tetrahydro[1,2,4]triazolo[4,3-a]pyridin-3(2H)-one], the IC50 rises from 1.9 nM to 117 nM (62-fold).

Compared with `O=C([C@@H]1CCCc2nn(Cc3cc(C(F)(F)F)nc4ccccc34)c(=O)n21)N1CC(O)C1` [Example 495, (5S)-5-[(3-Hydroxyazetidin-1-yl)carbonyl]-2-{[2-(trifluoromethyl)quinolin-4-yl]methyl}-5,6,7,8-tetrahydro[1,2,4]triazolo[4,3-a]pyridin-3(2H)-one], `O=C(C1CCc2nn(Cc3ccnc(C(F)(F)F)c3F)c(=O)n21)N1C[C@@H](F)[C@@H](F)C1` (single isomer, unassigned) [Example 177] is 2.4-fold lower in IC50: 16.5 nM for the first, 6.9 nM for the second.

Going from `O=C([C@@H]1CCCc2nn(Cc3ncc(Cl)cc3Cl)c(=O)n21)N1C[C@@H](F)[C@@H](F)C1` [Example 400, (5S)-2-[(3,5-Dichloropyridin-2-yl)methyl]-5-{[(3R,4S)-3,4-difluoropyrrolidin-1-yl]carbonyl}-5,6,7,8-tetrahydro[1,2,4]triazolo[4,3-a]pyridin-3(2H)-one] to `O=C([C@@H]1CCCc2nn(CC3CC3)c(=O)n21)N1C[C@@H](F)[C@@H](F)C1` [Example 184, (5S)-2-(Cyclopropylmethyl)-5-{[(3R,4S)-3,4-difluoropyrrolidin-1-yl]carbonyl}-5,6,7,8-tetrahydro[1,2,4]triazolo[4,3-a]pyridin-3(2H)-one], the IC50 rises from 0.455 nM to 4.5 nM (9.9-fold). The first is the more potent here.

Compared with `O=C([C@@H]1CCCc2nn(Cc3nc(C(F)(F)F)no3)c(=O)n21)N1CC(F)(F)C1` [Example 499, (5S)-5-[(3,3-Difluoroazetidin-1-yl)carbonyl]-2-{[3-(trifluoromethyl)-1,2,4-oxadiazol-5-yl]methyl}-5,6,7,8-tetrahydro[1,2,4]triazolo[4,3-a]pyridin-3(2H)-one], `O=C(C1CC(C(F)(F)F)Cc2nn(Cc3ccc(Cl)nc3)c(=O)n21)N1CCCC1` (single isomer, unassigned) [Example 227, (5RS,7RS)-2-[(6-Chloropyridin-3-yl)methyl]-5-(pyrrolidin-1-ylcarbonyl)-7-(trifluoromethyl)-5,6,7,8-tetrahydro[1,2,4]triazolo[4,3-a]pyridin-3(2H)-one] is 4.6-fold lower in IC50: 110 nM for the first, 24 nM for the second.
